This note sets out measurements from patent publication EP3364964B1, “COMPOSITION BASED ON DIHYDROMYRICETIN AND A ZINC SALT FOR THE TREATMENT OF ACNE AND OILY SKIN” (Thorel, Jean-Noël, priority 2015, dated 2017).

Data set [1] is described as follows: Protection of squalene against oxidation induced by hydrogen peroxide (GC/MS of non-oxidised squalene). As to conditions: H2O2 6%, 1 h; for Squalène Moyenne: mean; for Squalène (µg/ml): single trials (Essai). The source says: L'objectif de ce test est d'évaluer l'inhibition par la DHM de l'oxydation du squalène, induite par le peroxyde d'hydrogène (H2O2). Le Trolox (6-Hydroxy-2,5,7,8-tétraméthylchroman-2-carboxylic acid), un équivalent hydrosoluble de la vitamine E, est un antioxydant connu et est utilisé dans ces tests en tant que témoin positif.
Le squalène (Sigma Aldrich) est dans un premier temps solubilisé dans une chambre réactionnelle.
L'oxydation du squalène est induite par l'ajout d'une solution de peroxyde d'hydrogène (H2O2 à une concentration finale de 6%).
Les actifs devant être évalués sont ajoutés au mélange réactionnel. Ainsi, le Trolox à 0,8% en poids est utilisé comme témoin positif de la protection contre l'oxydation du squalène.
Un contrôle positif, correspondant au squalène incubé en présence d'H2O2, et un contrôle négatif, correspondant au squalène non exposé à l'H2O2, sont également réalisés.
Le mélange obtenu est mis sous agitation pendant une heure, à température ambiante et à l'abri de la lumière.
Le squalène est ensuite extrait du milieu réactionnel à l'aide d'une extraction liquide/liquide. Après évaporation de la solution organique, le résidu est solubilisé dans une solution de chloroforme et le squalène est analysé par une méthode de chromatographie GC/MS.
La mesure de la concentration en squalène permet d'estimer la quantité de squalène ayant été oxydée au cours de la réaction. En effet et selon la technique de mesure utilisée, seule la forme non oxydée est détectée.

Data set [2] relates to lignée de sébocytes humains SEB0662. In words: MTT cell viability / cytotoxicity test in sebocytes. Format: cell-based. As for the experimental part:
(§1) Dans cette étude, on utilise la lignée de sébocytes humains SEB0662.
(§2) Les cellules sont cultivées dans le milieu de culture classique des sébocytes, à 37°C et en présence de 5% de CO2. Les cellules sont utilisées au 7^ème passage.
La sélection des doses d'actifs est réalisée grâce à un test de viabilité cellulaire au MTT. On retient les doses qui permettent de maintenir une viabilité supérieure à 90%.
L'erreur standard de la moyenne (esm) représente l'écart de ln moyenne de l'échantillon par rapport à la moyenne de la population. L'esm est calculée en divisant l'écart-type (Sd) par la racine carrée de la taille de l'échantillon (sqrt(n)). Erreur standard de la moyenne(esm) = écart-type(Sd)/sqrt(n) [formula] Pourcentage de viabilité: viabilité(%) = (DOcomposé/DOtémoin) × 100 [formula] Pourcentage de stimulation: Stimulation(%) = [(Valeur/moyennedutémoin)×100]−100 [formula] Pourcentage de d'inhibition: Inhibition(%) = 100−[(Valeur/moyennedutémoin)×100] [formula]

The test system of data set [3] is collagénase issue de Clostridium histolyticum. The data set is described as follows: Anti-collagenase activity, MMP-1 kit, in tubo fluorescence test. Format: biochemical. The source says:
L'activité anti-collagénase est mesurée grâce au kit MMP-1 (Molecular Probes; Réf E12055). Le principe est basé sur la capacité d'une enzyme de la famille des MMP (« Marix Metallo-Proteinase ») zinc-dépendantes, en l'occurrence la collagénase issue de Clostridium histolyticum, à hydrolyser son substrat (collagène-I) pour donner des composés fluorescents mesurables.
En présence d'un inhibiteur, l'action de l'enzyme est altérée empêchant l'hydrolyse de son substrat. La 1,10 phénanthroline est utilisée comme le témoin positif d'inhibition de l'enzyme. La fluorescence émise à 535 nm est mesurée après excitation à 485 nm.
La 1,10-phenanthroline monohydrate (10mM), un inhibiteur connu des MMP fourni dans le kit, est utilisée comme contrôle positif.
Les contrôles négatifs suivants ont été réalisés : • Témoin H2O : ce témoin a été utilisé pour solubiliser la 1-10-phenantroline monohydrate; il représente arbitrairement 100% d'activité de l'enzyme par rapport aux résultats obtenus avec ce contrôle. • Témoin solvant (DMSO 1%) : quantité de solvant inclus dans l'ensemble des actifs et associations à tester; il représente arbitrairement 100% d'activité de l'enzyme par rapport aux résultats obtenus avec les actifs et associations testés.
Le gluconate de zinc a été testé à la concentration de 0,1% (en poids).
La DHM a été testée aux concentrations suivantes : 0,002% et 0,05% (en poids). L'association gluconate de zinc 0,1% + DHM 0,002% a également été testée.
Les analyses quantitatives sont exprimées sous forme de moyenne ± l'écart type. La significativité statistique est déterminée par un test de Student. Les différences sont considérées comme statistiquement significatives entre l'actif testé et son témoin solvant à partir de p<0.05. (NS : […]).

Data set [4] concerns Propionibacterium acnes ATCC 69.19. In words: Growth inhibition of P. acnes, micromethod of Lens-Lisbonne et al. (MIC). Format: cell-based. As to conditions: first concentration with growth <= 20 %, 36° C, 3 to 5 days, anaerobic. An excerpt:
L'objet de cette étude est d'évaluer l'activité inhibitrice de composés vis-à-vis de la souche Propionibacterium acnes selon les principes de la méthode décrite par Lens-Lisbonne et al. (1987).
La méthode de Lens-Lisbonne et al. permet de tester en milieu liquide le pouvoir antibactérien de substances faiblement solubles et/ou très volatiles, et permet d'éviter les méthodes par diffusion ou en phase vapeur. Brièvement, elle consiste à mettre en présence des volumes égaux de produit à tester et de milieu inoculé, à différentes concentrations. […] L'activité inhibitrice est évaluée à partir des mesures d'absorbance du mélange, comparées aux conditions contrôle. […]
Après incubation de la microplaque pendant une durée définie, la densité optique à 620 nm est mesurée. Les résultats sont exprimés en pourcentage de croissance calculé par rapport à un témoin de croissance et un témoin d'absorbance selon l'équation suivante: Pourcentage de croissance = (DOmesuréeduproduitàlaconcentrationC−DOmesuréedutémoind'absorbanceproduitàlaconcentrationC)/DO mesurée témoin de croissance [formula] […]
Le test est effectué sur microplaque 96 puits. En synthèse, 30 puits sont utilisés pour les témoins d'absorbance; 30 puits sont utilisés pour les essais. […]

For the next data set, the system named is sébocytes SEB0662. The data set is described as follows: IGF-1 induced lipid synthesis in sebocytes (Bodipy lipid droplet labelling, 14 days). Format: cell-based, humains. As to conditions: 0,001%, IGF-1 20 ng/ml. As for the experimental part:
La présente étude vise à étudier l'effet de la DHM et/ou du gluconate de zinc (Zn) sur l'inhibition de la synthèse des lipides, induite par l'ajout d'IGF-1, dans les sébocytes. Cet effet est suivi par marquage, à l'aide d'une sonde lipidique fluorescente couplée au Bodipy®, des sébocytes SEB0662 cultivés en monocouche pendant 14 jours en milieu de différenciation (supplémenté en IGF-1 à 20 ng/ml).
as §1, §2
Pour l'évaluation des actifs, un milieu dit de différenciation (milieu de culture classique supplémenté en dihydrotestostérone, albumine bovine sérique, acide linoléïque, glucose, sérum de veau fœtal, hydrocortisone et agonistes des PPAR (« Peroxysome Proliferator Activated Receptor »)), complémenté en IGF-1 à 20 ng/ml, est utilisé. L'ajout d'IGF-1 stimule la production de lipides par les sébocytes. […]
Les marquages sont quantifiés par mesure de l'intensité de fluorescence de la sonde rapportée au nombre de noyaux identifiés par le Hoechst (intégration des données numériques par le logiciel Developer Toolbox 1 .5, GE Healthcare). […]

Where “and” joins values, the source holds several entries; their conditions need not be identical. Equal values may be shown once.

`Cc1c(C)c2c(c(C)c1O)CCC(C)(C(=O)O)O2` (stereo not drawn) [Trolox, 6-Hydroxy-2,5,7,8-tétraméthylchroman-2-carboxylic acid, reference compound]: in data set [1] (0,8 % en poids), the “Indice de protection (%)” value is recorded as 42,94%; the “Squalène Moyenne” value is reported as 31,85 µg/ml; the “Squalène (µg/ml)” value is 31,41 µg/ml and 31,88 µg/ml and 32,25 µg/ml and 34,60 µg/ml and 32,49 µg/ml.
As for `O=C1c2c(O)cc(O)cc2O[C@H](c2cc(O)c(O)c(O)c2)[C@H]1O` [DHM, (2R,3R)-3,5,7-trihydroxy-2-(3,4,5-trihydroxyphenyl)-2,3-dihydrochromen-4-one], the results for the “Indice de protection (%)” value in data set [1] (0,01 % en poids), in data set [1] (0,05 % en poids) and in data set [1] (0,005 % en poids) were 35,19%, 45,28% and 28,64%, respectively. The entries for the “Squalène Moyenne” value in data set [1] (0,01 % en poids), in data set [1] (0,05 % en poids) and in data set [1] (0,005 % en poids) were 26,10 µg/ml, 33,58 µg/ml and 21,24 µg/ml, respectively. The “Squalène (µg/ml)” value in data set [1] (0,01 % en poids) was 27,01 µg/ml and 24,86 µg/ml and 26,42 µg/ml; in data set [1] (0,05 % en poids), 34,44 µg/ml and 32,88 µg/ml and 33,41 µg/ml; in data set [1] (0,005 % en poids), 19,84 µg/ml and 21,37 µg/ml and 22,51 µg/ml. In addition, the effet cytotoxique result in data set [2] (tested up to 0,003%) is “ne montre pas d'effet cytotoxique”. Further, the “inhibition de l'activité collagénase” value is given as 30,1% in data set [3] (0,05% en poids, versus DMSO 1% control) and 3,5% in data set [3] (0,002% en poids, versus DMSO 1% control).
As to `O.c1cnc2c(c1)ccc1cccnc12` [1-10-phénanthroline monohydrate, 1,10-phenanthroline monohydrate, reference compound], the “inhibition de l'activité collagénase” value in data set [3] (10mM, versus H2O control) is listed as 79,6%.
In the case of gluconate de zinc [reference compound], the “CMI microméthode (%-m/v)” value in data set [4] (Test 1) and in data set [4] (Test 2) was 0,05 %-m/v throughout. In addition, the cytotoxicité result in data set [2] (0,001%) is listed as “ne présente pas de cytotoxicité”. In data set [3] (0,1% en poids, versus DMSO 1% control), the “inhibition de l'activité collagénase” value was 80,2%. Moreover, the “inhibition de la synthèse des lipides induite par l'IGF-1” value in the data set with sébocytes SEB0662 is on record as roughly 15%.
